The inhibition is the relative decrease from the control value, in per cent.

In data set [1] the target is T1, OX1 (Homo sapiens, UniProt O43613).
T1 construct: expressed in transfected cells; host or cells: CHO (CHO-OX1, kept under selection antibiotic)
T1 sequence (O43613 1-425): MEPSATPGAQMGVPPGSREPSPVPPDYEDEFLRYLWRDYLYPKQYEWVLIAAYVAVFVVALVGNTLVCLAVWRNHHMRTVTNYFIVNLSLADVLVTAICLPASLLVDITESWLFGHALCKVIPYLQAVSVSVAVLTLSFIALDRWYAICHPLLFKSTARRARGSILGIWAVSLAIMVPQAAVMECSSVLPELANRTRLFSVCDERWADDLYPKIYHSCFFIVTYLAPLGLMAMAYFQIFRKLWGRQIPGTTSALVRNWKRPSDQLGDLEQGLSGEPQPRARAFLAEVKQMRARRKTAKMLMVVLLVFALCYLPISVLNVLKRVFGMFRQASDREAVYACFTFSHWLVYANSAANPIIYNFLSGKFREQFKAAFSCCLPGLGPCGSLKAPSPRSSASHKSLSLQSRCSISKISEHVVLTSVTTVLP
The experiment in a line: Orexin receptor cell-based functional assay, [Ca2+]i by FLIPR, CHO-OX1 cells. Particulars: CHO-OX1 cells, [Ca2+]i by FLIPR, antagonist dose-range 0.1 nM-10 μM, EC90 of OXA; read-out: OX1. The gist of the method:
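Antagonist mode FLIPR calcium read in CHO-OX1 and CHO-OX2 lines. Test compounds, dosed 0.1 nM-10 μM, preincubated 30 min after 37° C dye loading with 2.5 mM probenecid (calcium4 for 30 min or calcium6 for 2 h).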

The target of data set [2] is T2, CYP3A4 (Homo sapiens, UniProt P08684).
T2 construct: pre-incubated with human liver microsomes and NADPH; from tissue; host or cells: human liver microsomes
T2 sequence (P08684 whole entry): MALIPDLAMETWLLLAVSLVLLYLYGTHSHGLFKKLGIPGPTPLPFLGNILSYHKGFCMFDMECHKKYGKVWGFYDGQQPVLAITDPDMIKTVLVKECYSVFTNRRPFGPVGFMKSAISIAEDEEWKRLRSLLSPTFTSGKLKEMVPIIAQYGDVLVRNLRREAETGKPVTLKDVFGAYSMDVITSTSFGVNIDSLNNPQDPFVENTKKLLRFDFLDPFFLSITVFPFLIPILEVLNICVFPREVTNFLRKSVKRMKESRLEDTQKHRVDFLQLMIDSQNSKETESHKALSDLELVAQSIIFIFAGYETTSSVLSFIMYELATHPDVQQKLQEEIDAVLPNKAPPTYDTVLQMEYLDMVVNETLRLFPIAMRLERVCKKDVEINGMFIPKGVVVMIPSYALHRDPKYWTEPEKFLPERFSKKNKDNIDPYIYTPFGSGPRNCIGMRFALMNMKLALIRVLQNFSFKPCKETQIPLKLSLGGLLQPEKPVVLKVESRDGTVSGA
The experiment in a line: Cytochrome P450 inhibition assay (midazolam hydroxylation). The class given is in vitro ADME. The conditions noted are these: human, human liver microsomes, probe midazolam (hydroxylation to 1′-hydroxymidazolam), 10 μM test compound, midazolam at approximately its Km. The gist of the method: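 Percent inhibition of midazolam 1′-hydroxylation by 10 μM compound was measured, midazolam dosed at about Km. Time-dependent inhibition was probed by a 30 min preincubation of compound with human liver microsomes and NADPH ahead of substrate, compared against samples without preincubation.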
Background: Microsomes from liver hold many membrane-bound enzymes, among them those of drug oxidation.

Take `Cc1ccc(-c2ccnc(C)c2)c(C(=O)N2CCC[C@@H](C)[C@H]2CNc2nc3cc(Cl)ccc3o2)c1` [Example A37, ((2S,3R)-2-(((5-Chlorobenzo[d]oxazol-2-yl)amino)methyl)-3-methylpiperidin-1-yl)(5-methyl-2-(2-methylpyridin-4-yl)phenyl)methanone]: the IC50 in data set [1] came to 4 nM. The compound also registered an inhibition at 10 µM in data set [2] of 96%.

Consider `Cc1ccc(-n2nccn2)c(C(=O)N2CCC[C@@H](C)[C@H]2CNc2ccc(Cl)cn2)c1` [Example A78, ((2S,3R)-2-(((5-Chloropyridin-2-yl)amino)methyl)-3-methylpiperidin-1-yl)(5-methyl-2-(2H-1,2,3-triazol-2-yl)phenyl)methanone], for which, in data set [1], the IC50 stood at 7 nM. At 10 µM the inhibition in data set [2] was 84%.

As for `Cc1ccc(-c2cnccn2)c(C(=O)N2CCC[C@@H](C)[C@H]2CNc2ccc(C(F)(F)F)cn2)c1` [Example A19, ((2S,3R)-3-Methyl-2-(((5-(trifluoromethyl)pyridin-2-yl)amino)methyl)piperidin-1-yl)(5-methyl-2-(pyrazin-2-yl)phenyl)methanone], the IC50 in data set [1] is 4 nM. The inhibition at 10 µM in data set [2] was determined as 96%.

Turning to `C[C@@H]1CCCN(C(=O)c2cc(F)c(F)cc2-c2ncccn2)[C@@H]1CNc1ncc(C(F)(F)F)cn1` [Example A243, (4,5-Difluoro-2-(pyrimidin-2-yl)phenyl)((2S,3R)-3-methyl-2-(((5-(trifluoromethyl)pyrimidin-2-yl)amino)methyl)piperidin-1-yl)methanone], the IC50 in data set [1] worked out at 75 nM. Also, at 10 µM the inhibition in data set [2] was 68%.

`Cc1ccc(-c2ncccn2)c(C(=O)N2CCC[C@@H](C)[C@H]2CNc2ccc(C(F)(F)F)nn2)n1` [Example A185, ((2S,3R)-3-Methyl-2-(((6-(trifluoromethyl)pyridazin-3-yl)amino)methyl)piperidin-1-yl)(6-methyl-3-(pyrimidin-2-yl)pyridin-2-yl)methanone]: in data set [1], the IC50 came to 46 nM. The compound further had an inhibition at 10 µM in data set [2] of 33%.

On to `COc1cccnc1NC[C@@H]1[C@H](C)CCCN1C(=O)c1cc(C)ccc1-n1nccn1` [Example A98, ((2S,3R)-2-(((3-Methoxypyridin-2-yl)amino)methyl)-3-methylpiperidin-1-yl)(5-methyl-2-(2H-1,2,3-triazol-2-yl)phenyl)methanone], for which the IC50 in data set [1] amounted to 270 nM. The compound also returned an inhibition at 10 µM in data set [2] of 48%.

For the compound `Cc1ccc(-n2ccc(C)n2)c(C(=O)N2CCC[C@@H](C)[C@H]2CNc2nnc(C(F)(F)F)s2)c1` [Example A132, ((2S,3R)-3-Methyl-2-(((5-(trifluoromethyl)-1,3,4-thiadiazol-2-yl)amino)methyl)piperidin-1-yl)(5-methyl-2-(3-methyl-1H-pyrazol-1-yl)phenyl)methanone], in data set [1], the IC50 was determined as 160 nM. For the same compound, the inhibition at 10 µM in data set [2] is 81%.

On to `C[C@@H]1CCCN(C(=O)c2c(F)cccc2-n2nccn2)[C@@H]1CNc1ncc(Cl)cn1` [Example A260, ((2S,3R)-2-(((5-Chloropyrimidin-2-yl)amino)methyl)-3-methylpiperidin-1-yl)(2-fluoro-6-(2H-1,2,3-triazol-2-yl)phenyl)methanone], for which the IC50 in data set [1] came to 85 nM. The compound also showed an inhibition at 10 µM in data set [2] of 53%.

With `Cc1ccc(-c2nccn2C)c(C(=O)N2CCC[C@@H](C)[C@H]2CNc2ccc(C(F)(F)F)cn2)c1` [Example A20, ((2S,3R)-3-Methyl-2-(((5-(trifluoromethyl)pyridin-2-yl)amino)methyl)piperidin-1-yl)(5-methyl-2-(1-methyl-1H-imidazol-2-yl)phenyl)methanone], the IC50 in data set [1] was found to be 37 nM. The same compound had an inhibition at 10 µM in data set [2] of 83%.

For `COc1ccnc(-c2ccc(C)cc2C(=O)N2CCC[C@@H](C)[C@H]2CNc2ccc(C(F)(F)F)cn2)n1` [Example A21, (2-(4-Methoxypyrimidin-2-yl)-5-methylphenyl)((2S,3R)-3-methyl-2-(((5-(trifluoromethyl)pyridin-2-yl)amino)methyl)piperidin-1-yl)methanone], the IC50 in data set [1] is 13 nM. In data set [2], this compound showed an inhibition at 10 µM of 89%.

For `Cc1ccc(-n2ncc(C)n2)c(C(=O)N2CCC[C@@H](C)[C@H]2CNc2nc3cc(Cl)ccc3o2)c1` [Example A116, ((2S,3R)-2-(((5-Chlorobenzo[d]oxazol-2-yl)amino)methyl)-3-methylpiperidin-1-yl)(5-methyl-2-(4-methyl-2H-1,2,3-triazol-2-yl)phenyl)methanone], the IC50 in data set [1] is 4 nM. In data set [2], this compound registered an inhibition at 10 µM of 75%.

In the case of `COc1cccc(NC[C@@H]2[C@H](C)CCCN2C(=O)c2cc(C)ccc2-n2nccn2)n1` [Example A80, ((2S,3R)-2-(((6-Methoxypyridin-2-yl)amino)methyl)-3-methylpiperidin-1-yl)(5-methyl-2-(2H-1,2,3-triazol-2-yl)phenyl)methanone], the IC50 in data set [1] is 1870 nM. In data set [2], this compound returned an inhibition at 10 µM of 28%.

Take `Cc1ccc(-n2nccn2)c(C(=O)N2CCC[C@@H](C)[C@H]2CNc2ncc(C(F)(F)F)cn2)c1` [Example A149, ((2S,3R)-3-Methyl-2-(((5-(trifluoromethyl)pyrimidin-2-yl)amino)methyl)piperidin-1-yl)(5-methyl-2-(2H-1,2,3-triazol-2-yl)phenyl)methanone]: the IC50 in data set [1] is 3 nM. This compound returned an inhibition at 10 µM in data set [2] of 60%.

As for `C[C@@H]1CCCN(C(=O)c2ccccc2-c2ncccn2)[C@@H]1CNc1ccc(C(F)(F)F)cn1` [Example A316, ((2S,3R)-3-Methyl-2-(((5-(trifluoromethyl)pyridin-2-yl)amino)methyl)piperidin-1-yl)(2-(pyrimidin-2-yl)phenyl)methanone], in data set [1], the IC50 is 4 nM. The same compound showed an inhibition at 10 µM in data set [2] of 63%.

As to `C[C@@H]1CCCN(C(=O)c2cccc(F)c2-c2ncccn2)[C@@H]1CNc1ccc(C(F)(F)F)cn1` [Example A233, (3-Fluoro-2-(pyrimidin-2-yl)phenyl)((2S,3R)-3-methyl-2-(((5-(trifluoromethyl)pyridin-2-yl)amino)methyl)piperidin-1-yl)methanone], the IC50 in data set [1] came out at 5 nM. Also, testing at 10 µM in data set [2] gave an inhibition of 72%.

For `C[C@@H]1CCCN(C(=O)c2cc(F)ccc2-c2ncccn2)[C@@H]1CNc1ccc(Cl)cn1` [Example A229, ((2S,3R)-2-(((5-Chloropyridin-2-yl)amino)methyl)-3-methylpiperidin-1-yl)(5-fluoro-2-(pyrimidin-2-yl)phenyl)methanone], the IC50 in data set [1] turned out to be 4 nM. In data set [2], this compound registered an inhibition at 10 µM of 72%.

As for `Cc1ccc(-c2ccc(F)cn2)c(C(=O)N2CCC[C@@H](C)[C@H]2CNc2ccc(Cl)cn2)c1` [Example A159, ((2S,3R)-2-(((5-Chloropyridin-2-yl)amino)methyl)-3-methylpiperidin-1-yl)(2-(5-fluoropyridin-2-yl)-5-methylphenyl)methanone], the IC50 in data set [1] was 170 nM. Testing at 10 µM in data set [2] gave an inhibition of 88%.

On to `Cc1ccc(-c2nn[nH]n2)c(C(=O)N2CCC[C@@H](C)[C@H]2CNc2ccc(C(F)(F)F)cn2)c1` [Example A23, ((2S,3R)-3-Methyl-2-(((5-(trifluoromethyl)pyridin-2-yl)amino)methyl)piperidin-1-yl)(5-methyl-2-(2H-tetrazol-5-yl)phenyl)methanone], for which the IC50 in data set [1] was over 1000 nM. The compound further showed an inhibition at 10 µM in data set [2] of 75%.

Values taken from patent US9440982B2 (Eolas Therapeutics, Inc., priority 2012, dated 2016).
